Patent publication US20030208035A1, “Antifungal and/or antibacterial peptides, preparation methods, compositions containing same and methods of treating mammals and/or plants” (priority 2000, published 2003)
Like-named read-outs stand apart in the source and are kept apart here. Bridges are numbered along the chain shown (N, C = ends). Where no end group is shown, it is not given here.

Tests used:
[1] = system: fluconazole-resistant C. albicans; experiment: microbe, parasite or virus in culture; format: cell-based, Candida albicans
Experimental: (§1) Candida yeasts (C. albicans, C. glabrata, C. dubliensis, C. tropicalis, C. kefyr, C. krusei and C. parapsilosis—donated by Dr. H. Koenig, Hôpital Civil, Strasbourg), fluconazole-resistant C. albicans (n^o245962, n^o2332, n^o246335 and n^o3552, donated by Drs. J.Meis and J. Mouton, University Hospital, Microbiology Department, Nijmegen, Netherlands), and Cryptoccocus neoformans (donated by Dr. H. Koenig, Hôpital Civil, Strasbourg) were seeded on Sabouraud-Cloramphenicol Agar slant gelose (Biomerieux) and left to incubate for 24 h at 30° C. (Candida sp.) and for 72 h at 37° C. (Cryptoccocus neoformans).
(§2) Some yeast colonies were placed in suspension in liquid Sabouraud medium (Biomerieux) to obtain a final concentration of 0.1 OD at 600 nm corresponding to 2.5.10^6 yeasts/ml.
(§3) The yeast suspension was adjusted to 5.10^3 yeast/ml in Sabouraud medium.
(§4) 100 μl of peptide dilutions (concentration of 50 with 0.097 μg/ml peptide) were deposited in microtitration plates. After adding […] of yeast suspension with 5.10^3 yeast/ml i.e. 500 yeasts, the test plates were incubated 24 h at 30° C. (Candida) under slow shaking or 72 h at 37° C. (Cryptoccocus).
(§5) Determination of minimal inhibiting concentrations (MIC) was made by measuring absorbency at 600 nm using a spectrophotometer-microtitration plate reader. The MIC score was set at a growth inhibition rate of 50%.

Candida albicans = experiment: anti-Candida albicans growth inhibition test in liquid medium (96-well microplates); format: cell-based; conditions: for Activity C.a. (relative activity in relation to heliomycin): fold relative to heliomycin; for Activity C.a. (relative activity in relation to Ard1): fold relative to Ard1
Experimental: (§6) The anti-Candida albicans and anti-Aspergillus fumigatus activities of the different analogues were assessed using a growth inhibition test in liquid medium made in 96-well microplates. The activity of the purified peptides was tested for different dilutions of each peptide and was compared with those of heliomycin and Ard1 quantified under the same conditions.
The activity test was made directly on yeasts derived from a stock frozen at −80° C., in Sabouraud medium containing 15% glycerol. The density of the yeasts in the stock was adjusted to an optical density of 0.4 OD at 600 nm. After slow thawing at room temperature, the yeast suspension was reduced by dilution to an optic density of 1 mOD at 600 nm in Sabouraud medium, and 90 μl of this dilution were deposited in the wells of microtitration plates in the presence of 10 μl of sample to be tested. Control samples were systematically made in which 10 μl of sample were replaced by 10 μl of sterile water. Media sterility was controlled by incubating 10 μl sterile water in the presence of 90 μl of medium. The samples were incubated at 30° C. for 40 h under slight stirring and the antifungal activity was quantified by measuring optic density at 600 nm.

Aspergillus fumigatus = experiment: anti-Aspergillus fumigatus growth inhibition test in liquid medium (96-well microplates); format: cell-based; conditions: for Activity A.f. (relative activity in relation to heliomycin): fold relative to heliomycin; for Activity A.f. (relative activity in relation to Ard1): fold relative to Ard1
Experimental: as §6
The spores of Aspergillus fumigatus were derived from a stock frozen at −80° C., containing 10^7 spores/ml in a 25% glycerol solution. After slow thawing at room temperature, the spores were placed in suspension in PDB culture medium (12 g Potato Dextrose Broth medium, per […] water). 10 μl of each sample were deposited in the wells of microtitration plates in the presence of 90 μl PDB culture medium supplemented with tetracycline (100 μg/ml) and cefotaxime (1 μg/ml) containing the spores (at a final concentration of 1000 spores/well). Control cultures were systematically made in which 10 μl of sample were replaced by 10 μl of sterile water. Media sterility was controlled by incubating 10 μl sterile water in the presence of 90 μl of medium. The samples were incubated at 37° C. for 24 h to 48 h in a humid atmosphere, and the antifungal activity was quantified by a score of 0 to 9 taking germination account; the size and morphology of the hyphs were determined under the binocular microscope. […].

[2] = system: Candida albicans (IHEM 8060 strain); experiment: Candida albicans infected model, lethal in mice (disseminated candidiasis); format: in vivo; conditions: for time of onset of the 1st death: placebo day 2.5
Experimental: Heliomycin and its analogues were tested for in vivo antifungal activity in a model infected with Candida albicans, lethal in mice. The pathogenic agent Candida albicans (IHEM 8060 strain) was inoculated by intravenous route (i.v.) at a dose of 2.5×10^6 CFU/mouse. the peptides were administered by i.v. route in 4 injections 6 h, 24 h, 48 h and 72 h after infection. Assessment criteria for activity were evaluation of survival and morbidity at 7 days. The morbidity scores, which take into account general state of health (condition of fur, mobility, hydration) were determined for each mouse with values ranging from 0 to 5 and defined below: 0=dead, 1=moribund, 2=very ill, 3=ill, 4=slightly ill, 5=healthy. The sum of the individual scores was calculated for each group, a score of 50 for a group of 10 mice meaning that all the mice were healthy.
Following a standard protocol, groups of 10 Swiss OF1 male mice weighing 12 g were infected via i.v. route with a dose of 2.5×10^6 CFU/mouse. Heliomycin and Ard1 were administered by i.v. route in 4 injections, 6 h, 24 h, 48 h and 72 h after infection. For each peptide, 2 doses were tested: 10 mg/kg and 30 mg/kg. A placebo group was injected with peptide solvent, 0.9% sodium chloride.
In this experiment, inoculation of the mice with 2.5.10^6 CFU/mouse was 50% lethal at day 5 in the group which received placebo treatment. The first deaths occurred on post-infection day 2.5 and median mortality occurred on post-infection day 5. On day 7, 5 mice were alive and the morbidity score 15/50.
In this experiment, inoculation of Swiss OF1 mice weighing 15 g with 3.10^6 CFU of Candida albicans induces 50% mortality on day 4 after infection in the group treated with the placebo. The first deaths occur 2.5 days after infection, and 100% of the mice were dead on day 5.5.
In this experiment, inoculation of the mice with 2.5.10^6 CFU/mouse was 50% lethal at day 5 and 100% at day 8 for mice in the placebo group. The first death occurred 3 days after infection. The morbidity score fell rapidly below 30/50 (25/50 at day 2.5).
The pEM35 peptide was administered at doses of 10 and 30 mg/kg/injection with 3 daily doses for 4 days (1 h, 5 h and 10 h post-infection on day 0; at 8 h, 14 h and 20 h on days 1, 2 and 3), i.e., daily doses totalling 30 and 90 mg/kg.

A. fumigatus = format: cell-based; conditions: 48 h
Experimental: The antifungal activity was detected by a growth inhibition test in a liquid medium.
The filamentous fungi (A. fumigatus, A. flavus and A. terreus, donated by Dr. H. Koenig, Hôpital Civil, Strasbourg; and S. prolificans and F. solani donated by Drs. J. Meis and J. Mouton, University hospital, Microbioolgy Department, Nijmegen, Netherlands) were seeded on Malt-Agar slant gelose (Biomerieux) and incubated 7 days at 37° C.
The spores were then collected with 10 ml YPG medium containing 0.05% Tween 20 and filtered through a gauze. The spores were centrifuged 10 min at 1700 rpm, the residue was collected in YPG (1 g Yeast extract, 1 g Peptone, 3 g Glucose per 1 l).
The suspension was counted with a Coverslide and adjusted to 10^4 spores/ml.
100 μl of peptide dilutions (concentration of 50 with 0.097 μg/ml peptide) were deposited in microtitration plates. 100 μl with 10^4 spores/ml of filamentous fungi, i.e. 1000 spores, were then added.
The test plates were incubated 48 h at 37° C.
Determination of minimum inhibiting concentrations (MIC) was made by observing well cover rate. The MIC score was set at 50% well covering.

Alternaria brassicola = format: cell-based; conditions: 48 h
Experimental: (§7) 100 μl of peptide dilutions (concentration 50 with 0.097 mg/ml peptide) were deposited in microtitration plates.
(§8) After adding 100 μl of frozen spores with 10^4 spores/ml of A. brassicola and N. crassa (donated by Dr. Bullet, IBMC, Strasbourg) the test plates were incubated 48 h at 30° C.
(§9) Determination of minimal inhibiting concentrations (MIC) was made by observing well cover rate. The MIC was set at 50% well covering.

Neurospora crassa = format: cell-based; conditions: 48 h
Experimental: as §7, §8, §9

C. krusei = format: cell-based
Experimental: as §1, §2, §3, §4, §5

C. kefyr = format: cell-based
Experimental: as §1, §2, §3, §4, §5

C. glabrata = format: cell-based
Experimental: as §1, §2, §3, §4, §5

[3] = FIGS. 4-5, 10 mg/kg, placebo 5 alive
[4] = FIGS. 2-3, 10 mg/kg i.v., 4 injections

OC(Cn1cncn1)(Cn1cncn1)c1ccc(F)cc1F [fluconazole]
MIC ([1]; Candida albicans, fluconazole-resistant C. albicans n° 3552, read-out: MIC): > 64 µg/mL | MIC ([1]; fluconazole-resistant C. albicans n° 2332): > at 64 μg/ml | MIC ([1]; fluconazole-resistant C. albicans n° 245962): > at 64 μg/ml | MIC ([1]; fluconazole-resistant C. albicans n° 246335): > at 64 μg/ml

DKLIGSCVWGAVNYTSDCNGECKRRGYKGGHCGSFLNINCWCET [pEM24, peptide derived from heliomycin]
Activity C.a. (relative activity in relation to heliomycin) (Candida albicans): 4 | Activity A.f. (relative activity in relation to heliomycin) (Aspergillus fumigatus): 8 | activity compared with Ard1 ([2]; FIGS. 4-5, 10 mg/kg): more active than Ard1 | mice alive on day 7 (out of 10) [2, 3]: 7 mice | time of onset of the 1st death ([2]; FIGS. 4-5, 10 mg/kg): 3 days

DKLIGSCVWGAVNYTSNCNAECKRRGYKGGHCGSFANVNCWCER [pEM30, peptide derived from Ard1]
Activity C.a. (relative activity in relation to Ard1) (Candida albicans): 4 | Activity A.f. (relative activity in relation to Ard1) (Aspergillus fumigatus): 0.5-1 | activity compared with Ard1 ([2]; FIGS. 4-5, 10 mg/kg): more active than Ard1 | mice alive on day 7 (out of 10) [2, 3]: 7 mice | time of onset of the 1st death ([2]; FIGS. 4-5, 10 mg/kg): 4 days

DKLIGSCVWGAVNYTSNCNAECKRRGYKGGHCGSFANVNCWCET (disulfide 7-32, 18-40, 22-42 (inferred)) [Ard1]
MIC (A. fumigatus): 12.5 µg/mL | Activity A.f. (relative activity in relation to heliomycin) (Aspergillus fumigatus): 2 | MIC (Alternaria brassicola): >25 µg/mL | MIC (Neurospora crassa): 0.097 µg/mL | MIC (C. krusei): 3.125 µg/mL | MIC (C. kefyr): >25 µg/mL | MIC (C. glabrata): >25 µg/mL | effect on survival and general condition of the mice [2, 4]: did not make it possible to improve survival | time after infection at which 50% of mice were dead [2, 4]: 2 days | mice alive on day 7 (out of 10) ([2]; FIGS. 2-3, 30 mg/kg i.v., 4 injections): 5 mice | morbidity score at day 7 ([2]; FIGS. 2-3, 30 mg/kg i.v., 4 injections, 50 = all 10 mice healthy): 16/50 | delay of onset of the first death ([2]; FIGS. 2-3, 30 mg/kg i.v., 4 injections, vs placebo): 24 h | mice alive on day 7 (out of 10) [2, 3]: 8 mice | delay of onset of the first death ([2]; FIGS. 4-5, 2.5.10^6 CFU/mouse, 10 mg/kg, placebo first deaths day 2.5): 36 h | effect on mouse survival relative to placebo treatment ([2]; FIGS. 6-7, 3.10^6 CFU, 5 mg/kg, three i.v. injections, 10 mice of 15 g): does not significantly increase mouse survival | effectiveness in the candidiasis infected model ([2]; FIGS. 6-7, dose 5 mg/kg): not effective

DKLIGSCVWLAVNYTSNCNAECKRRGYKGGHCGSFANVNCWCQT [pEM57, peptide derived from Ard1]
Activity C.a. (relative activity in relation to Ard1) (Candida albicans): 1 | Activity A.f. (relative activity in relation to Ard1) (Aspergillus fumigatus): 8

DKLIGSCVWLAVNYTSNCNAECKRRGYKGGHCGSFLNVNCWCET [pEM54, peptide derived from Ard1]
Activity C.a. (relative activity in relation to Ard1) (Candida albicans): 1 | Activity A.f. (relative activity in relation to Ard1) (Aspergillus fumigatus): 1

DKLIGSCVWLAVNYTSNCNAECKRRGYKGGHCGSFLNVNCWCQT [pEM55, peptide derived from Ard1]
Activity C.a. (relative activity in relation to Ard1) (Candida albicans): 1-2 | Activity A.f. (relative activity in relation to Ard1) (Aspergillus fumigatus): 2-7

DKLIGTCVWGAVNYTSDCNGECKRRGYKGGHCGSFANVNCWCET [pEM38, peptide derived from heliomycin]
Activity C.a. (relative activity in relation to heliomycin) (Candida albicans): 1 | Activity A.f. (relative activity in relation to heliomycin) (Aspergillus fumigatus): 1

NKLIGSCVWGAVNYTSDCNGECKRRGYKGGHCGSFANVNCWCQT [pEM39, peptide derived from heliomycin]
Activity C.a. (relative activity in relation to heliomycin) (Candida albicans): 2 | Activity A.f. (relative activity in relation to heliomycin) (Aspergillus fumigatus): 4-8

NKLIGSCVWGAVNYTSDCNGECKRRGYKGGHCGSFINVNCWCQT [pEM62, peptide derived from heliomycin]
Activity C.a. (relative activity in relation to heliomycin) (Candida albicans): 3-6 | Activity A.f. (relative activity in relation to heliomycin) (Aspergillus fumigatus): 2-4

NKLIGSCVWGAVNYTSDCNGECKRRGYKGGHCGSFLNVNCWCQT [pEM61, peptide derived from heliomycin]
Activity C.a. (relative activity in relation to heliomycin) (Candida albicans): 5-10 | Activity A.f. (relative activity in relation to heliomycin) (Aspergillus fumigatus): 3-6

NKLIGSCVWGAVNYTSNCNAECKRRGYKGGHCGSFANVNCWCET [pEM40, peptide derived from Ard1]
Activity C.a. (relative activity in relation to Ard1) (Candida albicans): 2 | Activity A.f. (relative activity in relation to Ard1) (Aspergillus fumigatus): 1
